According to US20060069132A1, “Azolecarboxamide herbicides” (priority 2004, published 2006):

Tests used:
Assay in all cases: Test A pre-/postemergence herbicide test
velvetleaf = assay type: in vivo, Abutilon theophrasti
Source text: (§1) Seeds of plant species selected from barnyardgrass (Echinochloa crus-galli (L.) Beauv.), downy bromegrass (Bromus tectorum L.), large crabgrass (Digitaria sanguinalis (L.) Scop.), giant foxtail (Setaria faberi Herrm.), morningglory (Ipomoea spp.), redroot pigweed (Amaranthus retroflexus L.) and velvetleaf (Abutilon theophrasti Medik.) were planted into a sandy loam soil and treated preemergence with a directed soil spray using test chemicals formulated in a non-phytotoxic solvent mixture which included a surfactant. At the same time plants selected from these species were also treated postemergence by spraying to runoff with test chemicals formulated.
(§2) Plants ranged in height from 2 to 10 cm and were in the one- to two-leaf stage for the postemergence treatment. Treated plants and untreated controls were maintained in a greenhouse for approximately ten days, after which time all treated plants were compared to untreated controls and visually evaluated for injury. Plant response ratings, summarized in Table A, are based on a 0 to 100 scale where 0 is no effect and 100 is complete control. A dash (-) response means no test results.

large crabgrass = assay type: in vivo, Digitaria sanguinalis
Source text: as §1, §2

barnyardgrass = assay type: in vivo, Echinochloa crus-galli
Source text: as §1, §2

redroot pigweed = assay type: in vivo, Amaranthus retroflexus
Source text: as §1, §2

morningglory = assay type: in vivo, Ipomoea spp.
Source text: as §1, §2

giant foxtail = assay type: in vivo, Setaria faberi
Source text: as §1, §2

[1] = Postemergence, 2000 g ai/ha, 0 to 100 scale, 0 no effect, 100 complete control
[2] = Preemergence, 500 g ai/ha, visual rating, 0 to 100 scale (0 no effect, 100 complete control)
[3] = Preemergence, 2000 g ai/ha, 0 to 100 scale, 0 no effect, 100 complete control
[4] = Postemergence, 500 g ai/ha, 0 to 100 scale, 0 no effect, 100 complete control
[5] = Preemergence, 2000 g ai/ha, visual rating, 0 to 100 scale (0 no effect, 100 complete control)

Compound | Plant response rating, Velvetleaf (velvetleaf; [1]) | Velvetleaf plant response rating (velvetleaf; [2]) | Plant response rating, Crabgrass, Large (large crabgrass; [1]) | Crabgrass, Large plant response rating (large crabgrass; [2]) | Plant response rating, Barnyardgrass (barnyardgrass; [1]) | Barnyardgrass plant response rating (barnyardgrass; [2]) | Plant response rating, Pigweed (redroot pigweed; [1]) | Pigweed plant response rating (redroot pigweed; [2]) | Plant response rating, Morningglory (morningglory; [1]) | Morningglory plant response rating (morningglory; [2]) | Plant response rating, Foxtail, Giant (giant foxtail; [1]) | Foxtail, Giant plant response rating (giant foxtail; [2]) | other results
Cn1nc(C(C)(C)C)cc1C(=O)Nc1cccc2c1CNC2=O [Compound 53] | 0 | 0 | 0 | 0 | 0 | 0 | 0 | 30 | 0 | 0 | 0 | 0 | Velvetleaf plant response rating (velvetleaf; [3]): 0; Plant response rating, Crabgrass, Large (large crabgrass; [4]): 5; Crabgrass, Large plant response rating (large crabgrass; [3]): 40; Plant response rating, Barnyardgrass (barnyardgrass; [4]): 0; Barnyardgrass plant response rating (barnyardgrass; [3]): 10; Plant response rating, Pigweed (redroot pigweed; [4]): 0; Pigweed plant response rating (redroot pigweed; [3]): 40; Plant response rating, Morningglory (morningglory; [4]): 0; Morningglory plant response rating (morningglory; [3]): 0; Plant response rating, Foxtail, Giant (giant foxtail; [4]): 0; Foxtail, Giant plant response rating (giant foxtail; [3]): 0
CC(=NO)c1cccc(NC(=O)c2cc(C(F)(F)F)nn2C)c1 [Compound 103] | 45 | 20 | 30 | 35 | 75 | 55 | 100 | 80 | 35 | 0 | 30 | 0 | Velvetleaf plant response rating (velvetleaf; [4]): 10; Velvetleaf plant response rating (velvetleaf; [5]): 20; Crabgrass, Large plant response rating (large crabgrass; [4]): 15; Crabgrass, Large plant response rating (large crabgrass; [5]): 55; Barnyardgrass plant response rating (barnyardgrass; [4]): 45; Barnyardgrass plant response rating (barnyardgrass; [5]): 85; Pigweed plant response rating (redroot pigweed; [4]): 85; Pigweed plant response rating (redroot pigweed; [5]): 95; Morningglory plant response rating (morningglory; [4]): 25; Morningglory plant response rating (morningglory; [5]): 10; Foxtail, Giant plant response rating (giant foxtail; [4]): 10; Foxtail, Giant plant response rating (giant foxtail; [5]): 15
